The record followed here is patent US10155743B2, “Glutarimide derivatives, use thereof, pharmaceutical composition based thereon and methods for producing glutarimide derivatives” (OBSCHESTVO S OGRANICHENNOI OTVETSTVENNOSTIYU …, priority 2013, dated 2018).

Experiment [1] has as its system Coxsackie A2-virus (strain HCXV A2). The experiment can be described thus: Antiviral activity against Coxsackie virus in vivo (mortality of infected mice). The following applies: mice; for inhibition in vivo at 30 mg/kg / mortality at 30 mg/kg: Mus musculus, po; for inhibition in vivo at 30 mg/kg: 168 h, read-out: Protective index (%); for inhibition in vivo at 30 mg/kg / Average expectancy life (days), Relative / Average expectancy life (days), Vs. control: 10LD50 HCXV A2, 30 mg/kg orally once daily for 7 days; for mortality at 30 mg/kg: 360 h, 10LD50 HCXV A2 i.m., 30 mg/kg orally once daily for 7 days from 24 h after infection, 15 days monitoring, read-out: Total mortality rate, %; for Average expectancy life (days), Vs. control: difference to virus control. Also noted: species or system white mice.

Experiment [2] concerns influenza virus strain A/California/07/09 (H1N1) pdm09. Nature of the experiment: animal or person. In kind it is in vivo, white outbred female mice. To be noted: unidentified influenza virus, H1N1, in Mus musculus, po, 336 h, read-out: Mortality rate, %.
Experiment [3] relates to hRV strain (GKV reg. No. 2730). Nature of the experiment: Antiviral activity against rhinovirus in mice (body weight, lung weight, infectious titer in lungs). The experiment is classed as in vivo. The following applies: Ribavirin 40 mg/kg.

SMILES strings stand for the structures.

With `O=C1CCCC(=O)N1CCc1ccsc1` [Compound 12], in experiment [1], the inhibition in vivo at 30 mg/kg was 45%; the mortality (usually the share of the test organisms that died) at 30 mg/kg is 40%; the “Average expectancy life (days), Relative” value was 24.9 days; the “Average expectancy life (days), Vs. control” value was “+14.2 days”. In addition, the mortality at 30 mg/kg in experiment [2] is 60%.
In the same order, the values of `O=C1CCCC(=O)N1CCN1CCCC1` [Compound 23] are 36%, 50%, 23.8 days, “+13.1 days” and 40%.
For the compound `O=C1CCCC(=O)N1CCCn1ccnc1` [Compound 24], the mortality at 30 mg/kg in experiment [2] amounted to 55%.
On to `O=C1CCCC(=O)N1CCn1ccnc1` [Compound 30], for which, in experiment [1], the inhibition in vivo at 30 mg/kg is 18%; the mortality at 30 mg/kg turned out to be 60%; the “Average expectancy life (days), Relative” value amounted to 13.1 days; the “Average expectancy life (days), Vs. control” value is on record as “+2.4 days”. The mortality at 30 mg/kg in experiment [2] came to 50%.
In the same order, the values of `O=C1CCCC(=O)N1CCc1cn[nH]n1` [Compound 35] are 27%, 53.3%, 16.6 days, “+5.9 days” and 55%.
Turning to `O=C1CCCC(=O)N1CCc1nnn[nH]1` [Compound 36], in experiment [1], the inhibition in vivo at 30 mg/kg came out at 27%; the mortality at 30 mg/kg turned out to be 53.3%; the “Average expectancy life (days), Relative” value came to 16.7 days; the “Average expectancy life (days), Vs. control” value was “+6.0 days”. In addition, in experiment [2], the mortality at 30 mg/kg came to 60%.
For `O=C(O)C(Cc1ccccn1)N1C(=O)CCCC1=O` (centres unmarked) [Compound 83], the mortality at 30 mg/kg in experiment [2] was found to be 45%.
In the case of `NC(=O)c1ncn([C@@H]2O[C@H](CO)[C@@H](O)[C@H]2O)n1` [Ribavirin, reference compound], in experiment [3], the “Suppression of the reproduction of the virus in mouse lungs, Δ lg, Day 2 after infection” value is 0.88 ± 0.5 Δ lg; the “Suppression of the reproduction of the virus in mouse lungs, Δ lg, Day 3 after infection” value was 2.18 ± 0.26 Δ lg; the “Suppression of the reproduction of the virus in mouse lungs, Δ lg, Day 4 after infection” value is listed as 2 ± 0.16 Δ lg. Also, in experiment [3] (Hela cell culture), the “Infectious titer of the virus in lungs, lg TCID50, Day 2 after infection” value was 3.13 ± 0.5 lg TCID50; the “Infectious titer of the virus in lungs, lg TCID50, Day 3 after infection” value came to 0.33 ± 0.26 lg TCID50; the “Infectious titer of the virus in lungs, lg TCID50, Day 4 after infection” value was 0.2 ± 0.16 lg TCID50. Further, the “Body weight of the mice after infection with hRV, day 0” value in experiment [3] (day 0) amounted to 7.66 ± 0.89. The “Body weight of the mice after infection with hRV, day 1” value in experiment [3] (day 1 after infection) worked out at 8.81 ± 5.94. Besides, in experiment [3] (day 2 after infection), the “Body weight of the mice after infection with hRV, day 2” value turned out to be 13.87 ± 5.11 and the “Lung weight of the mice after infection with hRV, day 2” value is reported as 152.6 ± 4.55. In experiment [3] (day 3 after infection), the “Body weight of the mice after infection with hRV, day 3” value is reported as 13.11 ± 1.37 and the “Lung weight of the mice after infection with hRV, day 3” value was 130.1 ± 5.4. Also, in experiment [3] (day 4 after infection), the “Body weight of the mice after infection with hRV, day 4” value worked out at 13.37 ± 1.22 and the “Lung weight of the mice after infection with hRV, day 4” value was found to be 120.5 ± 3.37.
